Like-named read-outs stand apart in the source and are kept apart here.
Assays:
[1] = system: MALME-3M; test: NCI-60 SRB screen, melanoma; format: cell-based, human; settings: Homo sapiens, 48 h
[2] = system: OVCAR-5; test: NCI-60 SRB screen, ovarian cancer; format: cell-based, human; settings: Homo sapiens
[3] = system: DU-145; test: NCI-60 SRB screen, prostate cancer; format: cell-based, human; settings: Homo sapiens
[4] = system: BT-549; test: NCI-60 SRB screen, breast cancer; format: cell-based, human; settings: Homo sapiens
[5] = system: 786-0; test: NCI-60 SRB screen, renal cancer; format: cell-based, human; settings: Homo sapiens
[6] = system: purified bovine brain tubulin; test: Tubulin polymerization assay (light scattering, BK006 kit); format: biochemical; settings: compound at 10 μM
Outline: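 Compounds tested at 10 µM against vehicle (1% DMSO or EtOH) with bovine brain tubulin, 3 mg/mL, in pH 6.9 PIPES buffer containing 1 mM GTP and 10% glycerol, 37 °C. Light scattering at 340 nm tracked microtubule formation; average of two independent runs reported.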

[7] = system: M14; test: NCI-60 SRB screen, melanoma; format: cell-based, human; settings: Homo sapiens
[8] = system: MCF-7 human breast cancer cells; test: cells
[9] = system: SF295; test: NCI-60 SRB screen, CNS cancer; format: cell-based, human; settings: Homo sapiens
[10] = system: SNB-75; test: NCI-60 SRB screen, CNS cancer; format: cell-based, human; settings: Homo sapiens
[11] = system: SK-MEL-2; test: NCI-60 SRB screen, melanoma; format: cell-based, human; settings: Homo sapiens
[12] = system: T-47D; test: NCI-60 SRB screen, breast cancer; format: cell-based, human; settings: Homo sapiens, T47D, 48 h
[13] = system: OVCAR-8; test: NCI-60 SRB screen, ovarian cancer; format: cell-based, human; settings: Homo sapiens
[14] = system: OVCAR-3; test: NCI-60 SRB screen, ovarian cancer; format: cell-based, human; settings: Homo sapiens
[15] = system: RPMI-8226; test: NCI-60 SRB screen, leukemia; format: cell-based, human; settings: Homo sapiens
[16] = system: MDA-MB-435; test: NCI-60 SRB screen, melanoma; format: cell-based, human; settings: Homo sapiens
[17] = system: NCI/ADR-RES; test: NCI-60 SRB screen, ovarian cancer; format: cell-based, human; settings: Homo sapiens, 48 h
[18] = system: HCT-116; test: NCI-60 SRB screen, colon cancer; format: cell-based, human; settings: Homo sapiens
[19] = system: HOP-62; test: NCI-60 SRB screen, non-small cell lung cancer; format: cell-based, human; settings: Homo sapiens
[20] = system: HT29; test: NCI-60 SRB screen, colon cancer; format: cell-based, human; settings: Homo sapiens
[21] = system: NCI-H332M; test: NCI-60 SRB screen, non-small cell lung cancer; format: cell-based; settings: Homo sapiens, 48 h
[22] = system: HL-60(TB); test: NCI-60 SRB screen, leukemia; format: cell-based, human; settings: Homo sapiens
[23] = system: NCI-H460; test: NCI-60 SRB screen, non-small cell lung cancer; format: cell-based, human; settings: Homo sapiens
[24] = system: UACC-62; test: NCI-60 SRB screen, melanoma; format: cell-based, human; settings: Homo sapiens
[25] = system: MDA-MB-468; test: NCI-60 SRB screen, breast cancer; format: cell-based, human; settings: Homo sapiens
[26] = system: RXF 393; test: NCI-60 SRB screen, renal cancer; format: cell-based, human; settings: Homo sapiens
[27] = system: CCRF-CEM; test: NCI-60 SRB screen, leukemia; format: cell-based; settings: Homo sapiens, 48 h
[28] = system: HS 578T; test: NCI-60 SRB screen, breast cancer; format: cell-based; settings: Homo sapiens, 48 h
[29] = HL-60(TB), five dose 0.01–100 µM, 48 h
[30] = five dose 0.01–100 µM, read-out: GI50

## C=CC=CC1C(=O)N(c2cc(OC)c(OC)c(OC)c2)C1c1ccc(OC)cc1 (stereo not shown) [11h, 3-(Buta-1,3-dienyl)-4-(4-methoxyphenyl)-1-(3,4,5-trimethoxyphenyl)azetidin-2-one]
[1]; Malme-3M
  GI50: > 100000 nM
[2]; OVCAR-5, 48 h
  GI50: 94.8 nM
[3]; DU-145, 48 h
  GI50: 27 nM
[4]; BT-549, 48 h
  GI50: 20.3 nM
[5]; 786-0, 48 h
  GI50: 23.1 nM
[6]; 37 °C, 340 nm
  Vmax: 0.0035 mOD/min
[6]; relative to vehicle
  Fold Reduction in Vmax: 2.9
[7]; M14, 48 h
  GI50: 19.4 nM
[8]; MCF7, read-out: Antiproliferative Activity IC50
  IC50: 33 ± 5 nM
[9]; SF-295, 48 h
  GI50: 30.9 nM
[10]; SNB-75, 48 h
  GI50: 30.7 nM
[11]; SK-MEL-2, 48 h
  GI50: 3250 nM
[12]
  GI50: 56200 nM
[13]; OVCAR-8, 48 h
  GI50: 37.4 nM
[14]; OVCAR-3, 48 h
  GI50: 25.2 nM
[15]; RPMI-8226, 48 h
  GI50: 38.4 nM
[16]; MDA-MB-435, 48 h
  GI50: 19.1 nM
[17]
  GI50: 17.3 nM
[18]; HCT-116, 48 h
  GI50: 26.4 nM
[19]; HOP-62, 48 h
  GI50: 55.8 nM
[20]; HT-29
  IC50: 33 nM
[20]; HT-29, 48 h
  GI50: 33.2 nM
[21]
  GI50: 62.6 nM
[22]; [29]
  GI50: 33.8 nM
[22]; HL-60, NCI screen
  GI50: < 34 nM
[23]; NCI-H460, 48 h
  GI50: 33.2 nM
[24]; UACC-62, 48 h
  GI50: 26.7 nM
[25]; MDA-MB-468, 48 h
  GI50: 23.3 nM
[26]; RXF 393, 48 h
  GI50: 30.1 nM
[27]
  GI50: 37.8 nM
[28]; Hs-578T
  GI50: 24.7 nM

## COc1ccc(C2C(C(C)C)C(=O)N2c2cc(OC)c(OC)c(OC)c2)cc1OP(=O)(O)O (stereo not shown) [15b, 5-(3-Isopropyl-1-(3,4,5-trimethoxyphenyl)-4-oxoazetidin-2-yl)-2-methoxyphenyl dihydrogen phosphate]
[1]; MALME-3M, five dose 0.01–100 µM, read-out: GI50
  GI50: > 100000 nM
[2]; OVCAR-5, five dose 0.01–100 µM, 48 h, read-out: GI50
  GI50: 2340 nM
[3]; DU-145, five dose 0.01–100 µM, 48 h, read-out: GI50
  GI50: 368 nM
[4]; BT-549, five dose 0.01–100 µM, 48 h, read-out: GI50
  GI50: 411 nM
[5]; 786-0, five dose 0.01–100 µM, 48 h, read-out: GI50
  GI50: 439 nM
[7]; M14, five dose 0.01–100 µM, 48 h, read-out: GI50
  GI50: 291 nM
[8]; MCF7, 72 h, read-out: Antiproliferative Activity IC50
  IC50: 145000 ± 7760 nM
[9]; SF-295, SF295, five dose 0.01–100 µM, 48 h, read-out: GI50
  GI50: 137 nM
[10]; SNB-75, five dose 0.01–100 µM, 48 h, read-out: GI50
  GI50: 116 nM
[11]; SK-MEL-2, five dose 0.01–100 µM, 48 h, read-out: GI50
  GI50: 500 nM
[12]; T-47D, five dose 0.01–100 µM, read-out: GI50
  GI50: > 100000 nM
[13]; OVCAR-8, five dose 0.01–100 µM, 48 h, read-out: GI50
  GI50: 300 nM
[14]; OVCAR-3, five dose 0.01–100 µM, 48 h, read-out: GI50
  GI50: 270 nM
[15]; RPMI-8226, five dose 0.01–100 µM, 48 h, read-out: GI50
  GI50: 478 nM
[16]; MDA-MB-435, five dose 0.01–100 µM, 48 h, read-out: GI50
  GI50: 73.8 nM
[17]; [30]
  GI50: 212 nM
[18]; HCT-116, five dose 0.01–100 µM, 48 h, read-out: GI50
  GI50: 319 nM
[19]; HOP-62, five dose 0.01–100 µM, 48 h, read-out: GI50
  GI50: 374 nM
[20]; HT-29, HT29, five dose 0.01–100 µM, 48 h, read-out: GI50
  GI50: 3470 nM
[21]; […], five dose 0.01–100 µM, read-out: GI50
  GI50: 592 nM
[22]; [29]
  GI50: 305 nM
[23]; NCI-H460, five dose 0.01–100 µM, 48 h, read-out: GI50
  GI50: 325 nM
[24]; UACC-62, five dose 0.01–100 µM, 48 h, read-out: GI50
  GI50: 131 nM
[25]; MDA-MB-468, five dose 0.01–100 µM, 48 h, read-out: GI50
  GI50: 273 nM
[26]; RXF 393, five dose 0.01–100 µM, 48 h, read-out: GI50
  GI50: 282 nM
[27]; [30]
  GI50: 356 nM
[28]; HS 578T, five dose 0.01–100 µM, read-out: GI50
  GI50: 173 nM
